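A five-concentration, 48-hour dose response in 96-well plates underlies each endpoint, interpolated linearly between surrounding concentrations. TGI marks complete inhibition of growth.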
Tests used:
Assay in all cases: inhibition of tumour cell growth, NCI panel, 48 h
786-0 renal = test system: 786-0 renal
A498 renal = test system: A498 renal
ACHN renal = test system: ACHN renal
BT-549 breast = test system: BT-549 breast
CAKI-1 renal = test system: CAKI-1 renal
COLO 205 colon = test system: COLO 205 colon
DU-145 prostate = test system: DU-145 prostate
EKVX NSCLC = test system: EKVX NSCLC
HCC-2998 colon = test system: HCC-2998 colon
HCT-116 colon = test system: HCT-116 colon
HCT-15 colon = test system: HCT-15 colon
HL-60(TB) leukemia = test system: HL-60(TB) leukemia
HOP-62 NSCLC = test system: HOP-62 NSCLC
HS 578T breast = test system: HS 578T breast
HT29 colon = test system: HT29 colon
IGROV1 ovarian = test system: IGROV1 ovarian
K-562 leukemia = test system: K-562 leukemia
KM12 colon = test system: KM12 colon
LOX IMVI melanoma = test system: LOX IMVI melanoma
MALME-3M melanoma = test system: MALME-3M melanoma
MCF7 breast = test system: MCF7 breast
MDA-MB-231 breast = test system: MDA-MB-231 breast
MDA-MB-435 = test system: MDA-MB-435
MDA-N = test system: MDA-N
MOLT-4 leukemia = test system: MOLT-4 leukemia
NCI-H226 lung = test system: NCI-H226 lung
NCI-H23 lung = test system: NCI-H23 lung
NCI-H460 lung = test system: NCI-H460 lung
NCI-H522 lung = test system: NCI-H522 lung
NCI/ADR-RES ovarian = test system: NCI/ADR-RES ovarian
OVCAR-3 ovarian = test system: OVCAR-3 ovarian
OVCAR-4 ovarian = test system: OVCAR-4 ovarian
OVCAR-5 ovarian = test system: OVCAR-5 ovarian
OVCAR-8 ovarian = test system: OVCAR-8 ovarian
PC-3 prostate = test system: PC-3 prostate
RPMI-8226 leukemia = test system: RPMI-8226 leukemia
RXF 393 renal = test system: RXF 393 renal
SF-268 CNS = test system: SF-268 CNS
SF-295 CNS = test system: SF-295 CNS
SK-MEL-2 melanoma = test system: SK-MEL-2 melanoma
SK-MEL-28 melanoma = test system: SK-MEL-28 melanoma
SK-MEL-5 melanoma = test system: SK-MEL-5 melanoma
SN12C renal = test system: SN12C renal
SNB-19 CNS = test system: SNB-19 CNS
SNB-75 CNS = test system: SNB-75 CNS
SR leukemia = test system: SR leukemia
SW-620 colon = test system: SW-620 colon
T-47D breast = test system: T-47D breast
TK-10 renal = test system: TK-10 renal
U251 CNS = test system: U251 CNS
UACC-257 melanoma = test system: UACC-257 melanoma
UACC-62 melanoma = test system: UACC-62 melanoma
UO-31 renal = test system: UO-31 renal
A549 NSCLC = test system: A549 NSCLC
CCRF-CEM leukemia = test system: CCRF-CEM leukemia
HOP-92 NSCLC = test system: HOP-92 NSCLC
M14 melanoma = test system: M14 melanoma
SF-539 CNS = test system: SF-539 CNS
SK-OV-3 ovarian = test system: SK-OV-3 ovarian

Measured: TGI

N#Cc1c(NC(=S)Nc2ccccc2)sc2c1CCCC2
> 100 µM: 786-0 renal | A498 renal | ACHN renal | BT-549 breast | CAKI-1 renal | COLO 205 colon | DU-145 prostate | EKVX NSCLC | HCC-2998 colon | HCT-116 colon | HCT-15 colon | HL-60(TB) leukemia | HOP-62 NSCLC | HS 578T breast | HT29 colon | IGROV1 ovarian | K-562 leukemia | KM12 colon | LOX IMVI melanoma | MALME-3M melanoma | MCF7 breast | MDA-MB-231 breast | MDA-MB-435 | MDA-N | MOLT-4 leukemia | NCI-H226 lung | NCI-H23 lung | NCI-H460 lung | NCI-H522 lung | NCI/ADR-RES ovarian | OVCAR-3 ovarian | OVCAR-4 ovarian | OVCAR-5 ovarian | OVCAR-8 ovarian | PC-3 prostate | RPMI-8226 leukemia | RXF 393 renal | SF-268 CNS | SF-295 CNS | SK-MEL-2 melanoma | SK-MEL-28 melanoma | SK-MEL-5 melanoma | SN12C renal | SNB-19 CNS | SNB-75 CNS | SR leukemia | SW-620 colon | T-47D breast | TK-10 renal | U251 CNS | UACC-257 melanoma | UACC-62 melanoma | UO-31 renal

COc1ccc(C(OCC2OC(n3ccc(Oc4c(F)c(F)c(F)c(F)c4F)nc3=O)CC2OP(OCCC#N)N(C(C)C)C(C)C)(c2ccccc2)c2ccc(OC)cc2)cc1 (centres undefined)
> 100 µM: 786-0 renal | A498 renal | A549 NSCLC | ACHN renal | BT-549 breast | CAKI-1 renal | CCRF-CEM leukemia | COLO 205 colon | DU-145 prostate | HCC-2998 colon | HCT-116 colon | HCT-15 colon | HL-60(TB) leukemia | HOP-62 NSCLC | HOP-92 NSCLC | HS 578T breast | HT29 colon | IGROV1 ovarian | K-562 leukemia | KM12 colon | LOX IMVI melanoma | M14 melanoma | MCF7 breast | MDA-MB-231 breast | MDA-MB-435 | MDA-N | MOLT-4 leukemia | NCI-H226 lung | NCI-H23 lung | NCI-H460 lung | NCI-H522 lung | NCI/ADR-RES ovarian | OVCAR-3 ovarian | OVCAR-5 ovarian | OVCAR-8 ovarian | PC-3 prostate | RPMI-8226 leukemia | RXF 393 renal | SF-268 CNS | SF-295 CNS | SF-539 CNS | SK-MEL-2 melanoma | SK-MEL-28 melanoma | SK-MEL-5 melanoma | SK-OV-3 ovarian | SN12C renal | SNB-19 CNS | SNB-75 CNS | SR leukemia | SW-620 colon | T-47D breast | TK-10 renal | U251 CNS | UACC-257 melanoma | UACC-62 melanoma | UO-31 renal

CCOC(=O)CCN1C(=O)c2c(NC(=O)C(=O)O)cccc2S1(=O)=O
> 100 µM: 786-0 renal | A498 renal | A549 NSCLC | ACHN renal | BT-549 breast | CAKI-1 renal | CCRF-CEM leukemia | COLO 205 colon | DU-145 prostate | EKVX NSCLC | HCC-2998 colon | HCT-116 colon | HCT-15 colon | HL-60(TB) leukemia | HOP-62 NSCLC | HOP-92 NSCLC | HS 578T breast | HT29 colon | IGROV1 ovarian | K-562 leukemia | KM12 colon | LOX IMVI melanoma | M14 melanoma | MALME-3M melanoma | MCF7 breast | MDA-MB-231 breast | MDA-MB-435 | MDA-N | MOLT-4 leukemia | NCI-H226 lung | NCI-H23 lung | NCI-H460 lung | NCI-H522 lung | NCI/ADR-RES ovarian | OVCAR-4 ovarian | OVCAR-5 ovarian | OVCAR-8 ovarian | PC-3 prostate | RPMI-8226 leukemia | RXF 393 renal | SF-268 CNS | SF-295 CNS | SK-MEL-2 melanoma | SK-MEL-28 melanoma | SK-OV-3 ovarian | SN12C renal | SNB-19 CNS | SR leukemia | SW-620 colon | T-47D breast | TK-10 renal | U251 CNS | UACC-257 melanoma | UACC-62 melanoma | UO-31 renal
